Reference: patent publication US20070027067A1, “Transition-state Inhibitors of Pin1, alpha-Ketoamide-containing peptidomimetics, and synthesis thereof” (priority 2005, published 2007)

Assay: stability of the product in solution
Type: physicochemical
Conditions: CDCl3 solution, after 2 days; decomposition product appears to be a cyclic dimer (bis-lactone)
Excerpt: The compound 7 characterized by MS was obtained in 30% yield. […] The decomposition product appears to be a cyclic dimer (bis-lactone) of 7. [drawing 8] [drawing 9]

stability in solution (decomposition): totally decomposed
Compound: O=C(N[C@@H](CO)C(=O)C(=O)N1CCC[C@H]1C(=O)O)OCC1c2ccccc2-c2ccccc21 [Compound 7]
